Assay results reported in US9028887B2, “Method improve spatial memory via pterostilbene administration” (The United States of America, as represented by the …, priority 2007, dated 2015).

Tested on: M1-transfected COS-7 cells
Experiment: Calcium recovery in M1-transfected COS-7 cells after dopamine treatment and oxotremorine-induced depolarization
Type: cell-based, African green monkey
Conditions: then 1 mM dopamine 4 hours, 750 μM oxotremorine depolarization
Experimental: COS-7 cells, a cell line derived from African green monkey kidney, were grown in Dulbecco's Modified Eagle's Medium (D-MEM) supplemented with 10% fetal bovine serum (FBS) and containing 100 U/ml penicillin and 100 μg/ml streptomycin sulfate. Twenty four hours prior to transfection, cells were harvested with trypsin, counted, and plated on […] tissue culture plates at 5×10^6 cells/plate. Cells were transiently transfected with rat muscarinic receptor subtype 1 DNA by the DEAE-dextran method. After transfection, cells were incubated 2.5 hours in growth medium containing 80 μM chloroquine to minimize degradation of the DNA. Transfected cells were then maintained in growth medium for 48 hours, harvested with trypsin, plated to coverslips in 35 mm plates for calcium imaging, and incubated overnight.
Dis. 6:403-411, and hereby incorporated by reference. The BB extract and stilbenes were dissolved in growth media and cells were subsequently incubated for 45 minutes at 37° C. with the treated growth medium, followed by dopamine administration for 4 hours. Following these incubations, the cells were washed three times with extract-free growth medium prior to testing.
Calcium imaging was carried out using a Medical Systems Corp. open perfusion micro-incubator (37° C.) with temperature control that was mounted on the stage of a Nikon Eclipse TE200U microscope and illuminated with a fluorescent light source. Transfected cells were loaded with Fura-2/acetoxymethyl ester (2 μM) in loading medium (99% DMEM 1% FES) for 40 minutes at 37° C. with 5% CO2.
Real time analyses of calcium flux prior to and following 750 μM oxotremorine-induced depolarization were then carried out using Simple PCI software (Compix, Inc. Mars, Pa.). Response and recovery were then determined for each sample. […] Recovery was determined by assessing the time (within 300 sec) for the Ca^2+ levels to return to 20% of the increase following depolarization in the cells that responded. Data was analyzed by Kruskal-Wallis one-way analysis of variance and Mann-Whitney U tests.

Structure (SMILES) | protection against dopamine-induced decreases in Ca2+ Recovery (10 μg/ml pre-treatment 45 min) | protection against dopamine-induced decreases in Ca2+ Recovery (50 μg/ml pre-treatment 45 min) | other results
COc1ccc(/C=C/c2cc(OC)cc(OC)c2)cc1 [resveratrol trimethylether, trans-3,5,4′-trimethyletherstilbene] | protected against the dopamine-induced decreases in Recovery | – | –
COc1cc(/C=C/c2ccc(O[C@@H]3O[C@H](CO)[C@@H](O)[C@H](O)[C@H]3O)cc2)cc(OC)c1 [pterostilbene glucoside] | protected against the dopamine-induced decreases in Recovery | – | –
Oc1ccc(/C=C/c2cc(O)cc(O)c2)cc1 [resveratrol, trans-3,5,4′-trihydroxystilbene] | – | offered no protection | –
COc1cc(O)cc(/C=C/c2ccc(O)cc2)c1 [pinostilbene, trans-3,4′-dihydroxy-5-methoxystilbene] | – | offered no protection | –
COc1ccc(/C=C/c2cc(O)cc(O)c2)cc1 [desoxyrhapontigenin, trans-3,5-dihydroxy-4′-methoxystilbene] | – | – | protection against dopamine-induced decreases in Ca2+ Recovery (25 μg/ml pre-treatment 45 min): offered no protection
Oc1cc(O)cc(/C=C/c2ccc(O)c(O)c2)c1 [piceatannol, trans-3,4,3′,5′-tetrahydroxystilbene] | protected against the dopamine-induced decreases in Recovery | – | –
